US20200369728A1, “PEPTIDOMIMETIC MACROCYCLES AND USES THEREOF” (Aileron Therapeutics, Inc., priority 2015, published 2020)
Each block holds one molecule with its values, some of them ahead of it. Bridge positions count the residues as written; N and C are the ends. Square brackets hold non-standard residues; d marks the D form. Peptide text beside a SMILES is read from it. S8 = C=CCCCCCC[C@](C)(N)C(=O)O; R5 = C=CCCC[C@@](C)(N)C(=O)O

Tests used:
[1] = test system: SJSA-1; assay: Cell viability assay (MTT), SJSA-1; settings: read-out: SJSA-1 EC50 (72 h); 72 h, MTT
[2] = test system: SJSA-1 cells; assay: Cell lysis by peptidomimetic macrocycles (LDH release); format: cell-based; settings: SJSA-1, 1 h
Summary of the method: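 Membrane lysis measured as supernatant LDH after a 1 h, 37 °C exposure of SJSA-1 cells, held in RPMI with 1% FBS, to macrocycles at final 6.25-50 μM with 0.5% DMSO. Lytic references were 10 μM melittin and 1% Triton X-100; DMSO alone served as non-lytic control.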

[3] = test system: Caspase 3; assay: Caspase 3 detection assay in SJSA1 cells; format: cell-based; settings: SJSA1, 48 h, Caspase 3 activation over DMSO-treated cells
[4] = test system: RKO; assay: Cell viability assay (MTT), RKO; settings: read-out: RKO EC50 (72 h)

Structure (SMILES): CC(=O)N[C@@H](CC(C)C)C(=O)N[C@H](C(=O)N[C@@H](Cc1ccccc1)C(=O)N[C@]1(C)CCCCCCC=CCCC[C@@](C)(C(=O)N[C@@H](C)C(=O)N[C@@H](C)C(=O)N[C@@H](C)C(=O)N[C@@H](C)C(=O)N[C@@H](C)C(=O)N[C@H](C)C(N)=O)NC(=O)[C@H](CC(C)C)NC(=O)[C@H](CCC(N)=O)NC(=O)[C@H](C)NC(=O)[C@H](Cc2c[nH]c3ccccc23)NC(=O)[C@H](Cc2ccc(O)cc2)NC(=O)[C@H](CCC(=O)O)NC1=O)[C@@H](C)O (single isomer, unassigned) [compound 449]
EC50 [1]: < 5 µM

EC50 [1]: < 5 µM
Structure (SMILES): CCCC[C@H](NC(=O)[C@H](C)NC(=O)[C@H](C)NC(=O)[C@]1(C)CCCC=CCCCCCC[C@@](C)(NC(=O)[C@H](Cc2ccccc2)NC(=O)[C@@H](NC(=O)[C@H](CC(C)C)NC(C)=O)[C@@H](C)O)C(=O)N[C@@H](C)C(=O)N[C@@H](Cc2ccc(O)cc2)C(=O)N[C@@H](Cc2c[nH]c3ccccc23)C(=O)N[C@@H](C)C(=O)N[C@@H](CCC(N)=O)C(=O)N[C@@H](CC(C)C)C(=O)N1)C(=O)N[C@H](C)C(N)=O (single isomer, unassigned) [compound 75]
6.25 μM % Lysed cells (1 h LDH) [2]: −1%
25 μM % Lysed cells (1 h LDH) [2]: 1%
50 μM % Lysed cells (1 h LDH) [2]: 1%

EC50 [1]: < 5 µM
Structure (SMILES): CCCC[C@H](NC(=O)[C@H](C)NC(=O)[C@H](C)NC(=O)[C@]1(C)CCCC=CCCCCCC[C@@](C)(NC(=O)[C@H](Cc2ccccc2)NC(=O)[C@@H](NC(=O)[C@H](CC(C)C)NC(C)=O)[C@@H](C)O)C(=O)N[C@@H](C)C(=O)N[C@@H](Cc2ccc(O)cc2)C(=O)N[C@@H](Cc2c[nH]c3ccccc23)C(=O)N[C@@H](C)C(=O)N[C@@H](CCC(N)=O)C(=O)N[C@@H](CC(C)C)C(=O)N1)C(=O)N[C@@H](C)C(N)=O (single isomer, unassigned) [compound 68]

Structure (SMILES): CC(=O)N[C@@H](CC(C)C)C(=O)N[C@H](C(=O)N[C@@H](Cc1ccccc1)C(=O)N[C@]1(C)CCCCCCC=CCCC[C@@](C)(C(=O)N[C@@H](C)C(=O)N[C@@H](C)C(=O)N[C@H](C)C(=O)N[C@@H](C)C(=O)N[C@@H](C)C(=O)N[C@H](C)C(N)=O)NC(=O)[C@H](CC(C)C)NC(=O)[C@H](CCC(N)=O)NC(=O)[C@H](C)NC(=O)[C@H](Cc2c[nH]c3ccccc23)NC(=O)[C@H](Cc2ccc(O)cc2)NC(=O)[C@H](CCC(=O)O)NC1=O)[C@@H](C)O [compound 569]
EC50 [1]: < 5 µM

EC50 [1]: < 5 µM
Structure (SMILES): CC[C@H](C)[C@H](NC(=O)[C@H](C)NC(=O)[C@H](C)NC(=O)[C@]1(C)CCCC=CCCCCCC[C@@](C)(NC(=O)[C@H](Cc2ccccc2)NC(=O)[C@@H](NC(=O)[C@H](CC(C)C)NC(C)=O)[C@@H](C)O)C(=O)N[C@@H](C)C(=O)N[C@@H](Cc2ccc(O)cc2)C(=O)N[C@@H](Cc2c[nH]c3ccccc23)C(=O)N[C@@H](C)C(=O)N[C@@H](CCC(N)=O)C(=O)N[C@@H](CC(C)C)C(=O)N1)C(=O)N[C@H](C)C(N)=O (single isomer, unassigned) [compound 70]
caspase 3 μM [3]: 1
caspase 10 μM [3]: 9
caspase 30 μM [3]: 26
EC50 [4]: < 5 µM

Structure (SMILES): CC(=O)N[C@@H](CC(C)C)C(=O)N[C@H](C(=O)N[C@@H](Cc1ccccc1)C(=O)N[C@]1(C)CCCC=CCCCCCC[C@@](C)(C(=O)N[C@@H](C)C(=O)N[C@@H](C)C(=O)N[C@@H](C)C(=O)N[C@@H](C)C(=O)N[C@@H](C)C(=O)N[C@H](C)C(N)=O)NC(=O)[C@H](CC(C)C)NC(=O)[C@H](CCC(N)=O)NC(=O)[C@H](C)NC(=O)[C@H](Cc2c[nH]c3ccccc23)NC(=O)[C@H](Cc2ccc(O)cc2)NC(=O)[C@H](CCC(=O)O)NC1=O)[C@@H](C)O [compound 631] (Ac-LTF[R5]EYWAQL[S8]AAAAA[dA]-NH2; staple 4-11)
EC50 [1]: < 5 µM

EC50 [1]: < 5 µM
Structure (SMILES): CCCC[C@H](NC(=O)[C@H](C)NC(=O)[C@H](C)NC(=O)[C@]1(C)CCCC=CCCCCCC[C@@](C)(NC(=O)[C@H](Cc2ccccc2)NC(=O)[C@@H](NC(=O)[C@H](CC(C)C)NC(C)=O)[C@@H](C)O)C(=O)N[C@@H](C)C(=O)N[C@@H](Cc2ccc(O)cc2)C(=O)N[C@@H](Cc2c[nH]c3ccccc23)C(=O)N[C@@H](C)C(=O)N[C@@H](CCC(N)=O)C(=O)N[C@@H](CC(C)C)C(=O)N1)C(=O)N[C@H](C)C(N)=O (single isomer, unassigned) [compound 74]

Structure (SMILES): CC(=O)N[C@@H](CC(C)C)C(=O)N[C@H](C(=O)N[C@@H](Cc1ccccc1)C(=O)N[C@]1(C)CCCCCCC=CCCC[C@@](C)(C(=O)N[C@@H](C)C(=O)N[C@@H](C)C(=O)N[C@@H](C)C(=O)N[C@@H](C)C(=O)N[C@@H](C)C(=O)N[C@H](C)C(N)=O)NC(=O)[C@H](CC(C)C)NC(=O)[C@H](CCC(N)=O)NC(=O)[C@H](C)NC(=O)[C@H](Cc2c[nH]c3ccccc23)NC(=O)[C@H](Cc2ccc(O)cc2)NC(=O)[C@H](CCC(=O)O)NC1=O)[C@@H](C)O (single isomer, unassigned) [compound 579]
EC50 [1]: < 5 µM

Structure (SMILES): CC(=O)N[C@@H](CC(C)C)C(=O)N[C@H](C(=O)N[C@@H](Cc1ccccc1)C(=O)N[C@]1(C)CCCCCCC=CCCC[C@@](C)(C(=O)N[C@@H](C)C(=O)N[C@@H](C)C(=O)N[C@@H](C)C(=O)N[C@H](C)C(=O)N[C@@H](C)C(=O)N[C@H](C)C(N)=O)NC(=O)[C@H](CC(C)C)NC(=O)[C@H](CCC(N)=O)NC(=O)[C@H](C)NC(=O)[C@H](Cc2c[nH]c3ccccc23)NC(=O)[C@H](Cc2ccc(O)cc2)NC(=O)[C@H](CCC(=O)O)NC1=O)[C@@H](C)O (single isomer, unassigned) [compound 571]
EC50 [1]: < 5 µM

Structure (SMILES): CC(=O)N[C@@H](CC(C)C)C(=O)N[C@H](C(=O)N[C@@H](Cc1ccccc1)C(=O)N[C@]1(C)CCCCCC/C=C/CCC[C@@](C)(C(=O)N[C@@H](C)C(=O)N[C@@H](C)C(=O)N[C@@H](C)C(=O)N[C@@H](C)C(=O)N[C@H](C)C(=O)N[C@H](C)C(N)=O)NC(=O)[C@H](CC(C)C)NC(=O)[C@H](CCC(N)=O)NC(=O)[C@H](C)NC(=O)[C@H](Cc2c[nH]c3ccccc23)NC(=O)[C@H](Cc2ccc(O)cc2)NC(=O)[C@H](CCC(=O)O)NC1=O)[C@@H](C)O [compound 572]
EC50 [1]: < 5 µM

EC50 [1]: < 5 µM
Structure (SMILES): CC[C@H](C)[C@H](NC(=O)[C@H](C)NC(=O)[C@H](C)NC(=O)[C@]1(C)CCCCCCC=CCCC[C@@](C)(NC(=O)[C@H](Cc2ccccc2)NC(=O)[C@@H](NC(=O)[C@H](CC(C)C)NC(C)=O)[C@@H](C)O)C(=O)N[C@@H](C)C(=O)N[C@@H](Cc2ccc(O)cc2)C(=O)N[C@@H](Cc2c[nH]c3ccccc23)C(=O)N[C@@H](C)C(=O)N[C@@H](CCC(N)=O)C(=O)N[C@@H](CC(C)C)C(=O)N1)C(=O)N[C@H](C)C(N)=O [compound 234]

Structure (SMILES): CC(=O)N[C@@H](CC(C)C)C(=O)N[C@H](C(=O)N[C@@H](Cc1ccccc1)C(=O)N[C@]1(C)CCCCCC/C=C/CCC[C@@](C)(C(=O)N[C@@H](C)C(=O)N[C@@H](C)C(=O)N[C@@H](C)C(=O)N[C@@H](C)C(=O)N[C@@H](C)C(=O)N[C@@H](C)C(N)=O)NC(=O)[C@H](CC(C)C)NC(=O)[C@H](CCC(N)=O)NC(=O)[C@H](C)NC(=O)[C@H](Cc2c[nH]c3ccccc23)NC(=O)[C@H](Cc2ccc(O)cc2)NC(=O)[C@H](CCC(=O)O)NC1=O)[C@@H](C)O [compound 573]
EC50 [1]: < 5 µM

Structure (SMILES): CC(=O)N[C@@H](CC(C)C)C(=O)N[C@H](C(=O)N[C@@H](Cc1ccccc1)C(=O)N[C@]1(C)CCCCCC/C=C/CCC[C@@](C)(C(=O)N[C@@H](C)C(=O)N[C@@H](C)C(=O)N[C@@H](C)C(=O)N[C@@H](C)C(=O)N[C@@H](C)C(=O)N[C@H](C)C(N)=O)NC(=O)[C@H](CC(C)C)NC(=O)[C@H](CCC(N)=O)NC(=O)[C@H](C)NC(=O)[C@H](Cc2c[nH]c3ccccc23)NC(=O)[C@H](Cc2ccc(O)cc2)NC(=O)[C@H](CCC(=O)O)NC1=O)[C@@H](C)O [compound 331]
6.25 μM % Lysed cells (1 h LDH) [2]: 0%
25 μM % Lysed cells (1 h LDH) [2]: 0%
50 μM % Lysed cells (1 h LDH) [2]: 0%
caspase 0.3 μM [3]: 4.5
caspase 1 μM ([3]; 1 μM): 8
caspase 3 μM [3]: 11
caspase 10 μM [3]: 14.5
caspase 30 μM [3]: 30.5
EC50 [4]: < 5 µM
EC50 [1]: < 5 µM

EC50 [1]: < 5 µM
Structure (SMILES): CC[C@H](C)[C@H](NC(=O)[C@H](C)NC(=O)[C@H](C)NC(=O)[C@]1(C)CCCC=CCCCCCC[C@@](C)(NC(=O)[C@H](Cc2ccccc2)NC(=O)[C@@H](NC(=O)[C@H](CC(C)C)NC(C)=O)[C@@H](C)O)C(=O)N[C@@H](C)C(=O)N[C@@H](Cc2ccc(O)cc2)C(=O)N[C@@H](Cc2c[nH]c3ccccc23)C(=O)N[C@@H](C)C(=O)N[C@@H](CCC(N)=O)C(=O)N[C@@H](CC(C)C)C(=O)N1)C(=O)N[C@@H](C)C(N)=O (single isomer, unassigned) [compound 65]
6.25 μM % Lysed cells (1 h LDH) [2]: 0%
25 μM % Lysed cells (1 h LDH) [2]: 0%
50 μM % Lysed cells (1 h LDH) [2]: 2%
caspase 0.3 μM [3]: 1
caspase 3 μM [3]: 6
caspase 10 μM [3]: 28
caspase 30 μM [3]: 34
EC50 [4]: 5 to 15 µM
